In patent publication US20220041559A1, “BENZO-AND PYRIDO-PYRAZOLES AS PROTEIN KINASE INHIBITORS” (ROTTAPHARM BIOTECH S.R.L., priority 2019, published 2022):
Read-outs that look alike come from different tables or passages of the source.

Assays:
[1] = Pharmacokinetics in CD1 mice, iv and po; format: in vivo; conditions: 3 mg/kg; for half-life: read-out: t½* (converted)
VEGFR2 (KDR) kinase = molecular target: T1, VEGFR2 (KDR) kinase (Homo sapiens, UniProt P35968); experiment: ADP-Glo in vitro kinase assay, VEGFR2 kinase inhibition; format: biochemical; conditions: for IC50: ATP 50 μM, 30 minutes at room temperature; for VEGFR2 kinase inhibition, result in words: Table 19
T1 construct: purchased SignalChem
T1 sequence (P35968 20-1356): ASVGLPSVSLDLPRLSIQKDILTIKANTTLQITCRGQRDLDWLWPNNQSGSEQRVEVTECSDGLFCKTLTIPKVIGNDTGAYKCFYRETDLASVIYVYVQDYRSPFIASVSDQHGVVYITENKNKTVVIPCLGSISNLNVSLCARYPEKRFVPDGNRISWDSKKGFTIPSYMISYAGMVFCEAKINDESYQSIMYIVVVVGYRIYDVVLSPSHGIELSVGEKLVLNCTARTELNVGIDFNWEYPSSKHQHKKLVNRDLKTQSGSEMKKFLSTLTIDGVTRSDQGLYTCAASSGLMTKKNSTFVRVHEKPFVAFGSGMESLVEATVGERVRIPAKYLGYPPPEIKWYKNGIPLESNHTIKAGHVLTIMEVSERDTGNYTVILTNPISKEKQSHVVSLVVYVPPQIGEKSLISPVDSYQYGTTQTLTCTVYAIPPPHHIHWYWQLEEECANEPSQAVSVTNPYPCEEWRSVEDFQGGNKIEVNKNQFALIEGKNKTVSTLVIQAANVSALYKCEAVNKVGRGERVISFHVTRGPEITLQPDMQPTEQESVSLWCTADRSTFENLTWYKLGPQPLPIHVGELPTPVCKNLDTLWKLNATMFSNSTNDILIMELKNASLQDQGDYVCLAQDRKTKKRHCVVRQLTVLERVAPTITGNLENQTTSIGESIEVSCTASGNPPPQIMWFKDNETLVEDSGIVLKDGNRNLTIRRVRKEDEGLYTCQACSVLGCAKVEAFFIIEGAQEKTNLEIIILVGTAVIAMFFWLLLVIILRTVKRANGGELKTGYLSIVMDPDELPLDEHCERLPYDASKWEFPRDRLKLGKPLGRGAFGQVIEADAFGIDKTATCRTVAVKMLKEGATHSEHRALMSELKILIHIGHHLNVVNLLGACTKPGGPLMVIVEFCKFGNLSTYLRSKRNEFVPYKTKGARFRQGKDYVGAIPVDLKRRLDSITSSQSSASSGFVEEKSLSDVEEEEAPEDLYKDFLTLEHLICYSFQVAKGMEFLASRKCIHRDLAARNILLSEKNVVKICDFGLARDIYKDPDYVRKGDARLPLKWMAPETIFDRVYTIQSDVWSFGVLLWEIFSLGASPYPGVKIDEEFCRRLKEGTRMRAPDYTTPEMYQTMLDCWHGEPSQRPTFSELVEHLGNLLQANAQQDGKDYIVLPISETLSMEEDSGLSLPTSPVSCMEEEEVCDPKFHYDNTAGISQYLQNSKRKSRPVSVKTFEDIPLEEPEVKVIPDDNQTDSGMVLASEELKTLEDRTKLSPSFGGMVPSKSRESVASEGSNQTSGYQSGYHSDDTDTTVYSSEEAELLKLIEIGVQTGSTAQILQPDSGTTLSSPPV
Description: (§1) The ADP-Glo™ Kinase Assay (Promega), monitoring ADP produced in the kinase reaction, was performed in two steps. In the first one, after the kinase reaction, the ADP-Glo™ Reagent is added to terminate the kinase reaction and deplete the remaining ATP. In the second step, the Kinase Detection Reagent is added to simultaneously convert ADP to ATP (ATPn or newly synthesized ATP) and introduce luciferase and luciferin, allowing the ATPn to be measured (luciferase/luciferin reaction). The amount of light generated correlates with the amount of ATPn (indirectly with the ADP produced in kinase reaction).
(§2) Kinase reaction was performed in 10 μl in a white 384-well plate, inhibitor solutions in DMSO/Kinase buffer (40 mM Tris-Cl, 20 mM MgCl2, 0.1 mg/ml BSA, 50 μM DTT, pH 7.5) and VEGFR2 (KDR) kinase in Kinase buffer (SignalChem, 0.5 ng/μl final concentration in assay) were pre-incubate 15 minutes at room temperature. At the kinase concentration selected, a signal-to negative control ratio >10 was calculated, according to supplier indication. In samples representing the Total enzymatic activity or the negative control (no enzyme), inhibitor solution was replaced by diluents (1 DMSO in kinase buffer, final concentration) or ultra-pure water, respectively.
(§3) The range of inhibitor concentrations was from 10^−11 M up to 3×10^−6 M (final concentration in assay) and each experimental point was performed in duplicate.
(§4) To start the reaction, a substrate/ATP mix (50 μM final concentration, near to ATP Km value) was added to each sample and after 30 minutes incubation at room temperature, ADP-Glo™ Reagent and Kinase Detection Reagent, incubated in sequence according to the respective incubation time and supplier indication, allowed to stop and develop the kinase reaction. The luminescence was measured with a plate-reading luminometer (Envision 2104 Multilabel reader, PerkinElmer). The percentage of inhibition was calculated towards the Total enzymatic activity and the corresponding curves were analyzed by non linear curve fitting (GraphPad software, version 7 for Windows), allowing to calculate the IC50 value±standard error of the value

FYN = molecular target: T2, FYN (Homo sapiens, UniProt P06241); experiment: Z'-LYTE in vitro kinase assay, FYN kinase inhibition; format: biochemical; conditions: near-Km ATP, 60 minutes at 25° C.
T2 construct: purchased CarnaBioscience
T2 sequence (P06241 whole entry): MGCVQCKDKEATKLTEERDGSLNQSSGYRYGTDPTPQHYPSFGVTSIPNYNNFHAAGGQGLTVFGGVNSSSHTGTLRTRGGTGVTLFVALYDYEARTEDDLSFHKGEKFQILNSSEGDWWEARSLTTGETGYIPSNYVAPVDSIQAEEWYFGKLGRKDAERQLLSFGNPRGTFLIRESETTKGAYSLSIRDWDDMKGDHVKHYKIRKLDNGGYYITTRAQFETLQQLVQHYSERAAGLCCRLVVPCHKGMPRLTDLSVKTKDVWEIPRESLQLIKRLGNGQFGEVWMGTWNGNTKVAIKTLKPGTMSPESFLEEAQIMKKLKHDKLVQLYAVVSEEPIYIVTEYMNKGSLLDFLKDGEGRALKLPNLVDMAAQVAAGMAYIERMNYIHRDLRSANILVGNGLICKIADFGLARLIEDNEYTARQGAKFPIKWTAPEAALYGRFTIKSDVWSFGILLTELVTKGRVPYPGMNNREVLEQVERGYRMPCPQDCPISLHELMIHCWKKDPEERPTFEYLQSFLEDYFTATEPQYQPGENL
Description: Assays to determine the kinase inhibitory activity of compounds were performed using an automatic liquid handling device (Microlab STAR Hamilton) and Z′-LYTE™ Kinase Assay Platform (Invitrogen), a Fluorescence Resonance Energy Transfer (FRET)-based assay platform compatible with high-throughput screening (HTS) applications. The assay employs a fluorescence-based, coupled-enzyme format and utilizes the differential sensitivity of phosphorylated and non-phosphorylated peptides to proteolytic cleavage.
Test compounds were evaluated towards active FYN (CarnaBioscience). The enzyme was incubated in a 384 low-volume microplate with a synthetic peptide-substrate, ATP and different inhibitor concentrations, ranging from 10^−10 M up to 10^−5 M final concentration. Samples representing the 0% inhibition (or total enzymatic activity) were in the presence of compound diluent (1% DMSO final) in Reaction Buffer (50 mM Hepes, 10 mM MgCl2, 1 mM EGTA, 0.01% Brij-35, pH 7.5).
A near-Km ATP concentrations for the kinase and an optimal enzyme concentration that phosphorylates 20-40% of the Z′-LYTE™ Tyr 2 Peptide in a one-hour incubation, were selected. All reagents were diluted in reaction buffer and the kinase reaction was carried out in a total volume of 10 μl, for 60 minutes at 25° C. The 0% Phosphorylation (i.e. no ATP) and 100% Phosphorylation (i.e. synthetically phosphorylated peptide supplied) Assay Controls, included in each plate, allowed to calculate the percent phosphorylation achieved in the specific reaction well. The 0% Inhibition and 0% Phosphorylation (i.e. 100% Inhibition) Controls define the dynamic range in the screen. At the end of incubation, a secondary reaction (the Development Reaction) started by adding 5 μl of Development Reagent, containing a site-specific protease that recognizes and cleaves non-phosphorylated peptides, and was interrupted after 60 minutes with 5 μl/sample of Stop Reagent. Measurement of the Coumarin (Ex. 400 nm, Em. 460 nm) and Fluorescein (Ex. 400 nm, Em. 535 nm) emission signals were performed by a fluorescence plate reader (Envision, PerkinElmer).
Results are expressed as percentage of inhibition and the IC50 values were calculated by non-linear curve fitting using GraphPad™ Prism software.

EGFR = EGFR (Homo sapiens, UniProt P00533); experiment: ADP-Glo in vitro kinase assay, EGFR kinase inhibition; format: biochemical; design: purchased SignalChem; conditions: for IC50: ATP 10 μM, 30 minutes at room temperature; for EGFR kinase inhibition, result in words: text summary of Table 18
Sequence of EGFR (P00533 25-1210): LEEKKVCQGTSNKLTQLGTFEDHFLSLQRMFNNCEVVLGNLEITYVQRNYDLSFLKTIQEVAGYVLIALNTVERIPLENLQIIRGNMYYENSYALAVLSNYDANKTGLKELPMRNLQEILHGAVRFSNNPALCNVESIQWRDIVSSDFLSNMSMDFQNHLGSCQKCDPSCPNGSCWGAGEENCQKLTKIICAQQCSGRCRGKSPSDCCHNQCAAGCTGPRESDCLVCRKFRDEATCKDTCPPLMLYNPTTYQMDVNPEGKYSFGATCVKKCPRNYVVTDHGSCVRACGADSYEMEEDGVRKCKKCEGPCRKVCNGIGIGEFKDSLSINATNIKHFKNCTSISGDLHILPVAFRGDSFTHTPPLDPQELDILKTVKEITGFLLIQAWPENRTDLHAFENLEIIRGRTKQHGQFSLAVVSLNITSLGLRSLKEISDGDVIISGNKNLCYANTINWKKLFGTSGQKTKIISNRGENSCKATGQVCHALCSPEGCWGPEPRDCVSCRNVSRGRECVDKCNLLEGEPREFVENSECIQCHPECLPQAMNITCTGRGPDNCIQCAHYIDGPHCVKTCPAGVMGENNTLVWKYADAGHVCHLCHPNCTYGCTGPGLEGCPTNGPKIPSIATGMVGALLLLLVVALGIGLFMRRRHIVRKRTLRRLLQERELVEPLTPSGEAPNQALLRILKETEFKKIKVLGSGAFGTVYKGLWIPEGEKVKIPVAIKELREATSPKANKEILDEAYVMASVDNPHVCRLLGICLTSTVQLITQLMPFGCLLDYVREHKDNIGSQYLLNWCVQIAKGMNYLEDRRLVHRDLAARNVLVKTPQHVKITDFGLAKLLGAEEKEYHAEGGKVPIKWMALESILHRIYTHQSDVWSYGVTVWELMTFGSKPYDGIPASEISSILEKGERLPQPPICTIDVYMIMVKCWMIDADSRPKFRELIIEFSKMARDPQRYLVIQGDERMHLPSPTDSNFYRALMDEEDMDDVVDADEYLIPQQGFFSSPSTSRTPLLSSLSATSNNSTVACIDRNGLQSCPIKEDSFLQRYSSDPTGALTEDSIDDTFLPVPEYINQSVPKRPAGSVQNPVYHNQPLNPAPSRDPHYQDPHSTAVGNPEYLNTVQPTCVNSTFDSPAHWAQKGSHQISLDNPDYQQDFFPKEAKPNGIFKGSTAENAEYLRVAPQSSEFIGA
Description: as §1
as §2, with “EGFR” for “VEGFR2 (KDR)”, “2.5” for “0.5”, “selected” for “selected,”, “activity (no inhibitor)” for “activity”
as §3
as §4, with “mix (ATP 10” for “mix (50”, “the estimate.” for “the value”

human FynB = human FynB (Homo sapiens, UniProt P06241); experiment: Inhibition of FynB-induced Tau(Y18)-phosphorylation (cell-based assay, HEK293); conditions: for IC50: HEK293 over-expressing FynB and Tau 0N4R, incubation 6 or 24 hours, ELISA
Sequence of human FynB (P06241 271-524 limits assumed): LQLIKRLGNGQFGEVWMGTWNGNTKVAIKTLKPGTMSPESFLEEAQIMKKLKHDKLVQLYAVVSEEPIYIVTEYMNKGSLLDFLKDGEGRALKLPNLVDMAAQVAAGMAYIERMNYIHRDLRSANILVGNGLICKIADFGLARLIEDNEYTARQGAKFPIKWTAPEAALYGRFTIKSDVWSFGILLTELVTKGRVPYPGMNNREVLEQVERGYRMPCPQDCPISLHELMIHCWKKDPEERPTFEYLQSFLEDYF
Description: HEK293 cells (Human Embryonic Kidney 293) were seeded at 6×10^5 in poly-D-lysine 12 w microplates and grown adherent in medium DMEM/10% FBS at 37° C. with 5% CO2. After 24 h, cells were transfected in order to over-express either constitutively active form of human FynB and Tau protein (isoform 0N4R), through an optimized Lipofectamine® 3000 Transfection protocol (Life Technologies™). A non-transfected sample (negative control) was included in every experiment.
Twenty-four hours from transfection, treatments of cells were performed by adding fresh medium containing diluent (DMSO 0.1% final concentration) or test compounds. The incubation was carried out for 6 or 24 hours at 37° C. with 5% CO2. All experimental conditions were performed in duplicate.
At the end of the incubation, the medium was removed and cellular lysates were obtained by adding M-PER lysis buffer containing a 1× Protease/Phosphatase inhibitors cocktail. Then, lysates were transferred into Eppendorf tubes, sonicated and stored at −80° C.
Protein content was measured by Bradford method. Lysates were analyzed by a customized ELISA assay for Tau phosphorylation (Tyrosine 18 residue-Fyn mediated) and Total amount determination. The net OD values were used to calculate the inhibitory effect of compounds.

Row | Compound | IC50 (VEGFR2 (KDR) kinase) [nM] | IC50 (FYN) [nM] | IC50 (EGFR) [nM] | IC50 (human FynB) [nM] | further results
1 | CN1CCC(c2ccc(C(=O)Nc3n[nH]c4cc(Nc5ccccc5F)ccc34)cc2)CC1 [Compound 17, N-(6-((2-fluorophenyl)amino)-1H-indazol-3-yl)-4-(1-methylpiperidin-4-yl)benzamide] | 222 | 87 | 225 | – | Tlast ([1]; iv): 24 h; AUC(0-inf) ([1]; mouse, plasma, iv): 1400 ng·h/mL; AUC(0-t) ([1]; mouse, plasma, iv): 1350 ng·h/mL; clearance ([1]; mouse, plasma, iv, read-out: CLp): 47.7 mL/min/kg; Vd ([1]; mouse, plasma, iv, read-out: Vz): 22.8 L/kg; half-life ([1]; mouse, plasma, iv): 5.5 h; AUC(0-inf) ([1]; mouse, plasma, po): 726 ng·h/mL; AUC(0-t) ([1]; mouse, plasma, po): 712 ng·h/mL; Cmax ([1]; mouse, plasma, po): 178 nM; Tmax ([1]; mouse, plasma, po): 1 h; bioavailability ([1]; mouse, plasma, po): 53%; half-life ([1]; mouse, plasma, po): 4.5 h; Tlast ([1]; po): 24 h
2 | Cc1ccc(Nc2ccc3c(NC(=O)c4ccc(C5CCN(C)CC5)cc4)n[nH]c3c2)c(F)c1 [Compound 8, N-(6-((2-fluoro-4-methylphenyl)amino)-1H-indazol-3-yl)-4-(1-methylpiperidin-4-yl)benzamide] | 126 | 99 | ≥ 1000 | – | –
3 | CN1CCC(c2ccc(C(=O)Nc3n[nH]c4nc(Nc5cccc(F)c5F)ccc34)cc2)CC1 [Compound 20, N-(6-((2,3-difluorophenyl)amino)-1H-pyrazolo[3,4-b]pyridin-3-yl)-4-(1-methylpiperidin-4-yl)benzamide] | 105 | 209 | 9 | 234 | Inhibition of FynB-induced Tau(Y18)-phosphorylation, result in words (human FynB; summary of Table 20): best inhibitors; EGFR kinase inhibition, result in words (EGFR): more active
4 | COCCN1CCC(c2ccc(C(=O)Nc3n[nH]c4nc(Nc5ccccc5F)ccc34)cc2)CC1 [Compound 25, N-(6-((2-fluorophenyl)amino)-1H-pyrazolo[3,4-b]pyridin-3-yl)-4-(1-(2-methoxyethyl)piperidin-4-yl)benzamide] | – | 238 | – | 1770 | –
5 | CN1CCC(c2ccc(C(=O)Nc3n[nH]c4cc(Nc5ccccc5Cl)ccc34)cc2)CC1 [Compound 14, N-(6-((2-chlorophenyl)amino)-1H-indazol-3-yl)-4-(1-methylpiperidin-4-yl)benzamide] | 58 | 82 | ≥ 1000 | – | –
6 | CN1CCC(c2ccc(C(=O)Nc3n[nH]c4cc(Nc5c(F)cccc5Cl)ccc34)cc2)CC1 [Compound 1, N-(6-((2-chloro-6-fluorophenyl)amino)-1H-indazol-3-yl)-4-(1-methylpiperidin-4-yl)benzamide] | 105 | 104 | 102 | – | EGFR kinase inhibition, result in words (EGFR): more active

Continued, in another order:

Row | IC50 (VEGFR2 (KDR) kinase) [nM] | IC50 (FYN) [nM] | IC50 (EGFR) [nM] | IC50 (human FynB) [nM] | Compound | further results
7 | 12 | 513 | 24 | – | CN1CCC(Oc2ccc(C(=O)Nc3n[nH]c4nc(Nc5ccccc5F)ccc34)cc2)CC1 [Compound 47, N-(6-((2-fluorophenyl)amino)-1H-pyrazolo[3,4-b]pyridin-3-yl)-4((1-methylpiperidin-4-yl)oxy)benzamide] | VEGFR2 kinase inhibition, result in words (VEGFR2 (KDR) kinase): more potent; EGFR kinase inhibition, result in words (EGFR): more active
8 | – | 168 | – | 646 | CC(=O)N1CCN(c2ccc(C(=O)Nc3n[nH]c4nc(Nc5ccccc5F)ccc34)cc2)CC1 [Compound 52, 4-(4-acetylpiperazin-1-yl)-N-(6((2-fluorophenyl)amino)-1H-pyrazolo[3,4-b]pyridin-3-yl)benzamide] | –
9 | 3 | 356 | ≥ 1000 | – | CN1CCC(c2ccc(C(=O)Nc3n[nH]c4nc(Nc5ccc(C#N)cc5)ccc34)cc2)CC1 [Compound 32, N-(6-((4-cyanophenyl)amino)-1H-pyrazolo[3,4-b]pyridin-3-yl)-4-(1-methylpiperidin-4-yl)benzamide] | VEGFR2 kinase inhibition, result in words (VEGFR2 (KDR) kinase): more potent
10 | 437 | 388 | ≥ 1000 | – | CN1CCC(Oc2ccc(C(=O)Nc3n[nH]c4cc(Oc5ccccc5F)ccc34)cc2)CC1 [Compound 37, N-(6-(2-fluorophenoxy)-1H-indazol-3-yl)-4((1-methylpiperidin-4-yl)oxy)benzamide] | –
11 | – | 103 | – | 1850 | COc1ccc(Nc2ccc3c(NC(=O)c4ccc(C5CCN(C)CC5)cc4)n[nH]c3n2)cc1F [Compound 33, N-(6-((3-fluoro-4-methoxyphenyl)amino)-1H-pyrazolo[3,4-b]pyridin-3-yl)-4-(1-methylpiperidin-4-yl)benzamide] | –
12 | 1 | 95 | ≥ 1000 | – | CN1CCC(c2ccc(C(=O)Nc3n[nH]c4nc(Nc5ccccc5)ccc34)cc2)CC1 [Compound 29, 4-(1-methylpiperidin-4-yl)-N-(6-(phenylamino)-1H-pyrazolo[3,4-b]pyridin-3-yl)benzamide] | VEGFR2 kinase inhibition, result in words (VEGFR2 (KDR) kinase): more potent
13 | 533 | 181 | ≥ 1000 | – | CN1CCC(c2ccc(C(=O)Nc3n[nH]c4cc(Nc5ccccc5F)ccc34)nc2)CC1 [Compound 39, N-(6((2-fluorophenyl)amino)-1H-indazol-3-yl)-5-(1-methylpiperidin-4-yl)picolinamide] | –
